Data: patent publication US8361999B2, “Methods of treating cholesterol gallstone disease with ezetimibe” (Pontificia Universidad Catolica de Chile, priority 2005, dated 2013)
Marks after values point to notes of the source that are not given here.

Legend:
[1] = system: intestinal cholesterol absorption; conditions: mammalian models (murine models); cited from earlier work
GGCS = assay: Hepatic expression of gamma-gluthamylcystein-synthetase (Northern blot); type: in vivo, mouse; conditions: 14 days
Method: (§1) Expression of Specific Bile Salts (Ntcp, Bsep), Phospholipid (MDR2) and Organic Anions or Glutathione (MRP2); And Determination of Glutathione Synthesis (Gluthamylcystein-Synthetase (GGCS)).
(§2) Total RNA extraction. 80 mg hepatic tissue frozen at −70° C. was homogenized in 800 μl solution D, following the method described by Chomczynski and Sacchi, 1987. The RNA concentration was calculated by measuring the absorbance at 260 nm and its purity by the ratio OD260/OD280. The samples are stored at −20° C. RNA electrophoresis. 10 μg of total RNA are dried under gaseous N2 or vacuum for 10 minutes. 10 μl loading buffer were added, and the samples heated to 65° C., loaded into a denaturing 1% agarose/formaldehyde gel and run at 100 volts for 4 hours. The RNA integrity was determined by the clear visualization of the 28 S and 18 S ribosomal RNAs (FIG. 8).
(§3) Northern Blot and hybridization with radioactive probes. The gel with the RNA samples is washed with DEPC H2O for 10 minutes to eliminate formaldehyde and then incubated for 20 minutes with 50 mM NaOH for partial RNA hydrolysis. After a 10 minute wash with DEPC H2O to eliminate NaOH, the samples are transferred from the gel to Nylon membranes (Hybond-N, Amersham Pharmacia) over night by a capillary system. […]
(§4) Probe labeling by “de novo synthesis”. […] The percentage of incorporated radioactivity into the probe was always over 60%. […]

C57BL/6J mice = assay: Determination of hepatic cholesterol, protocol #1; type: in vivo, mouse; conditions: 14 days
Method: Surgery and sample harvest. The groups were maintained for 14 days (protocol #1) or 30 days (protocol #2) in the different experimental conditions. During the last three days of the protocols, 24 h depositions were collected from the different groups (pool) to determine the fecal excretion of neutral sterols (cholesterol) and acidic sterols (bile salts). At the end of the time established in the protocols, the mice were anesthetized (between 08:00-10:00 AM) with an intraperitoneal pentobarbital injection in doses of 4.5 mg per 100 gr body weight (Amigo et al., 2000) and subjected to surgery. Standardized surgery consists in an extended […] and visualization of abdominal organs, including liver, biliary tree and gallbladder. First, we performed a resection of the gallbladder (cholecystectomy), with the cystic duct previously ligated (Amigo et al., 2002; Amigo et al., 2000; Amigo et al., 2003b). The gallbladder is removed and visually inspected to determine the presence of gallstones. Then, the gallbladder bile is extracted to analyze the presence of cholesterol crystals in the fresh samples under the microscope with polarized light (20×). Aliquots are stored at −20° C. for subsequent chemical analysis. Afterwards, the common biliary duct is cannulated (biliary fistula) with a P-10 polyethylene cannula to collect bile during 15 minutes, determine bile flow by gravimetry (1 g bile=1 ml; bile flow is expressed as μl/min/g of mouse liver) and for posterior chemical analysis of biliary lipids and glutathione, as specified later. […] Then, the liver is removed, weighted, frozen in liquid nitrogen and stored at −80 for subsequent analyses. The plasma is separated by centrifugation at 1,500 rpm and stored at −80° C. for later analysis. The animal protocols were approved by our institution Ethics Committee and the animals were treated according to international care rules for experimental animals.
Determination of hepatic cholesterol. The hepatic cholesterol content is quantified from hepatic tissue (50 mg) that is homogenized in chloroform/methanol 2:1. The homogenate is incubated at 50° C. for 30 minutes, and then distilled H2O is added to separate the phases. The mix is vortexed and incubated at 4° C. for two hours and centrifuged at 1,000 rpm for 20 minutes. The lower phase (hydrophobic-chloroform) is removed and dried under gaseous nitrogen. The lipids on the tube wall are resuspended in chloroform plus Triton X-100 0.5% v/v. Four aliquots are taken and dried at room temperature. Total cholesterol content was measured to half of the tubes by the enzymatic method described earlier for biliary cholesterol. To the other half, free cholesterol was measured in buffer (Tris-HCl pH 7.6, Triton X-100, 0.2% phenol, aminoantipyrine) plus the enzymes cholesterol oxidase and peroxidase. The samples are incubated and quantified in the same way described for total cholesterol. The cholesterol ester content for each sample is calculated as the difference between total cholesterol and free cholesterol. The values obtained in each case are given as mg cholesterol/g liver (Folch et al., 1957).

MRP2 = assay: Hepatic expression of MRP2 (Northern blot); type: in vivo, mouse; conditions: 14 days
Method: as §1, §2, §3, §4

For O=C1[C@H](CC[C@H](O)c2ccc(F)cc2)[C@@H](c2ccc(O)cc2)N1c1ccc(F)cc1 [Ezetimibe, (−)-1-(4-fluorophenyl)-(3R)-[3-(4-fluorophenyl)-(.S)-hydroxypropyl]-(4S)-(4-hydroxyphenyl)-2-azetidinone], the “dosages that effectively inhibit intestinal cholesterol absorption” value [1] is listed as 0.1-6 mg/kg body weight per day, the “hepatic expression of GGCS, lithogenic diet plus Ezetimibe vs lithogenic diet” value (GGCS) is listed as “no significant differences” and the “Hepatic Cholesterol Esterified” value (C57BL/6J mice; Chow + Ezetimibe) is listed as 0.34 ± 0.16 mg/mL. The “Hepatic Cholesterol Free” value (C57BL/6J mice; Chow + Ezetimibe) was 1.91 ± 0.65 mg/mL, the “Hepatic Cholesterol Total” value (C57BL/6J mice; Chow + Ezetimibe) was 2.26 ± 0.59 mg/mL and the “Hepatic Cholesterol Esterified” value (C57BL/6J mice; Lithogenic + Ezetimibe) was 1.31 ± 0.99^& mg/ml. For the same molecule, the “Hepatic Cholesterol Free” value (C57BL/6J mice; Lithogenic + Ezetimibe) was 2.59 ± 0.24 mg/mL, the “Hepatic Cholesterol Total” value (C57BL/6J mice; Lithogenic + Ezetimibe) was 3.91 ± 1.05*^& mg/ml and the “hepatic cholesterol content smaller with Ezetimibe than with water” value (C57BL/6J mice; control diet) was 20%. The “increment of total hepatic cholesterol content” value (C57BL/6J mice; lithogenic diet plus Ezetimibe, 360% on lithogenic diet without Ezetimibe) was 38% and the “hepatic expression of MRP2, lithogenic diet plus Ezetimibe vs lithogenic diet” value (MRP2) was “no significant differences”.
